Reference: patent publication US20140248373A1, “ENHANCED PERFORMANCE HYDROGEN PEROXIDE FORMULATIONS COMPRISING PROTEINS AND SURFACTANTS” (Advanced BioCatalytics Corporation, priority 2008, published 2014)
Like-named read-outs stand apart in the source and are kept apart here.

What was measured:
[1] = Oxidation-reduction potential by Square Wave Voltammetry (SWVA); type: physicochemical; settings: for Wave Height, I, mA / E, mV vs. Ag/AgCl: SWVA; for E, mV vs. Ag/AgCl: absence of atmospheric oxygen
Description: The compatibility of H2O2 and the protein/surfactant system was assessed using two approaches. […] Second, H2O2 concentration was determined over various time periods, up to one year, in the mixtures of hydrogen peroxide and protein/surfactant mixture, by volumetric titration with standardized permanganate solution. ORP measurements were conducted using Square Wave Voltammetry (SWVA) in a glove box, in the absence of atmospheric oxygen. Solutions 27% and 15% H2O2 with and without addition of 5% protein/surfactant were taken for these experiments.

E. Coli = settings: for E. Coli Sample (CFU/mL): 5% Horse serum
Description: (§1) The following tests were run with PS-2 at a 4% concentration (0.72% total surfactant), H2O2 at 3% and phosphoric acid at <0.1% to pH 2.9, Versene (EDTA) at 0.1%. Test methodology was Suspension Based, Quantitative Time-Kill at 22° C., but with 5% Horse serum added to show the effects of organic contaminant on antimicrobial activity. A control of 3% H2O2 was run in this example.

S. aureus = settings: for S. aureus Sample (CFU/mL): 5% Horse serum
Description: as §1

[2] = exposure time of up to 10 minutes, organic contamination

SMILES: OO [Composition H2O2, hydrogen peroxide]
- Potential (apex of current wave) ([1]; NHE): about 1.8 V
- Potential (apex of current wave) ([1]; against saturated silver/silver chloride electrode): about 1.6 V

SMILES: OO [Control, 3% H2O2, hydrogen peroxide]
- E. Coli Sample (CFU/mL) (E. Coli; 1 min): 1.71E+07 CFU/mL
- E. Coli Sample (CFU/mL) (E. Coli; 5 min): 6.80E+06 CFU/mL
- E. Coli Sample (CFU/mL) (E. Coli; 10 min): 1.36E+06 CFU/mL
- E. Coli Sample (CFU/mL) (E. Coli; "Time Zero"): 1.99E+07 CFU/mL
- log reduction, gram negative pathogen (E. Coli) (E. Coli; [2]): 1 log
- S. aureus Sample (CFU/mL) (S. aureus; 1 min): 1.20E+07 CFU/mL
- S. aureus Sample (CFU/mL) (S. aureus; 5 min): 8.80E+06 CFU/mL
- S. aureus Sample (CFU/mL) (S. aureus; 10 min): 3.86E+06 CFU/mL
- S. aureus Sample (CFU/mL) (S. aureus; "Time Zero"): 1.04E+07 CFU/mL
- log reduction, gram positive pathogen (S. aureus) (S. aureus; [2]): 1 log

SMILES: OO [H2O2, 15%, hydrogen peroxide]
- Wave Height, I, mA [1]: 85 mA
- E, mV vs. Ag/AgCl [1]: 1,550 mV

SMILES: OO [H2O2, 27%, hydrogen peroxide]
- Wave Height, I, mA [1]: 92 mA
- E, mV vs. Ag/AgCl [1]: 1,600 mV
- Wave Height, I, mA ([1]; listed as pure H2O2): about 92 mA
